Reference: patent publication US8937154B2, “Stabilized therapeutic small helical antiviral peptides” (priority 2006, dated 2015)
Where a SMILES comes first, the peptide text is derived from it. Bridges are numbered along the chain shown (N, C = ends). [ ]: non-standard residue; d: D form. The star is where a group is joined. FITC = O=C1OC2(c3ccc(O)cc3Oc3cc(O)ccc32)c2ccc(NC(=S)*)cc21; R8 = C=CCCCCCC[C@@](C)(N)C(=O)O; S5 = C=CCCC[C@](C)(N)C(=O)O; βAla = NCCC(=O)O

Columns and labels:
HIV-IIIB = test: Viral re-infection assay: infectivity of virions released by treated HIV-1 infected MT-2 cells; format: cell-based; details: for infectivity respect to the control: about 7 μM
Description: The infectivity potential of the virions released by HIV-1 infected MT-2 cells treated with different concentrations of small stapled peptides. […] Control cells were untreated or treated with 1 ug/ml of AMD3100 (CXCR-4 receptor inhibitor). Following overnight incubation the medium was completely removed and replaced with fresh medium. On the fourth day post-infection the supernatants were collected. One aliquot of each sample was mixed 1:1 with a solution of 5% Triton X-100 for p24 quantification, and stored at 4° C., another aliquot was immediately frozen at −80° C. and used to compare the infectivity of the viral particles released by treated cells to the viral particles released by untreated cells. Following p24 quantification by sandwich-ELISA MT-2 cells were infected with viral samples normalized for the p24 content to calculate the TCID50. Following overnight incubation ¾ of the medium containing the inoculum was replaced with fresh medium. On the fourth day post infection supernatants were collected for p24 quantification and the TCID50 was calculated by the Spearman-Karber statistical method.
Therefore, to infect MT-2 cells we used the maximum quantities of supernatants possible.

HIV-1 IIIB [1] = format: cell-based
Description: The inhibitory activity of the constrained peptide described in Example 1 on infection by laboratory-adapted HIV-1 strains was determined as described in Jiang et al. (1991).

HIV-1 IIIB [2] = test: Western blot of p24 and p55 after treatment of HIV-1 IIIB infected MT-2 cells; format: cell-based; details: anti-p24 mAb, graded concentrations, vs positive untreated control
Description: Control cells were uninfected MT-2 or infected and untreated MT-2. Following overnight incubation the culture supernatant was completely removed and replaced with fresh medium. On the fourth day post-infection cells and virus supernatants were harvested. The supernatants were filtered and ultra-centrifuged through a 20% sucrose cushion for 2 hr at 27,000 rpm with a SW28 rotor to concentrate the viral particles. Viral pellets were slowly re-suspended and lysed. Cells were collected and processed for protein extraction. […] Proteins were then visualized by Western Blot and immuno-detected with HIV-1 anti-p24 gag mAb.
Same amounts of viral and cellular proteins were immunodetected with an anti-p24 mAb.

[3] = Circular dichroism, secondary structure in solution; format: physicochemical; details: 25° C., 1×PBS, 1-20% acetonitrile, 100 μM peptide
Description: We used circular dichroism (CD) to characterize the secondary structure of NYAD-1 and CAI in the uncomplexed state in solution. CD spectra were obtained on a Jasco J-715 Spectropolarimeter (Jasco Inc.) at 20° C. using the standard measurement parameters in Tris-HCl buffer (20 mM Tris, pH 8.0) in the presence of 1-15% (v/v) acetonitrile at a final concentration of 125-500 μM. In all the samples, the final concentrations of peptides and salt were always the same, and the spectra were corrected by subtracting the CD spectra of the appropriate reference solvent. Percent α-helix was calculated from molar ellipticity value at 222 nm.
The CD spectra were measured at 25° C. in 1×PBS in the presence of 1-20% (v/v) acetonitrile at a final concentration of peptide of 100 μM.
We used CD spectroscopy to determine the secondary structure characteristics of the stapled peptide NYAD-36. The corresponding linear peptide, NYAD-41, was used as control.

CTDM184A/W185A = CTDM184A/W185A (Human immunodeficiency virus type 1 group M subtype B, UniProt P04591, M317A/W316A); test: Isothermal titration calorimetry; set-up: species or system HIV-1; details: ITC, 25 mM sodium phosphate buffer (pH 7.3), single-binding model
Description: In a typical experiment, the ITC injection syringe was loaded with 625 μM CTDM184A/W185A protein dissolved in the dialysis buffer. […] Typically titrations consisted of 27 injections of 10 μl into the calorimetric cell, with 240-s equilibration between injections. The thermodynamic parameters were obtained and data were analysed using MicroCal Origin 7.0 software.

[4] = test system: HIV-1 gag-mStrawberry fusion protein; test: Direct colocalization with gag by confocal microscopy; format: cell-based; details: 293T cells transfected with pEF6A-gag-mStrawberry; near the plasma membrane
Description: A direct colocalization study was performed by transfecting 293T cells with pEF6A-gag-mStrawberry for 4 hr and then washing cells once with PBS. A serum-free or serum-containing medium containing FITC-conjugated peptide was added for another 20 hr culture. After three washes, the cells were examined and imaged under a Zeiss LSM510 laser scanning confocal microscope.

Compound	IC50 (HIV-1 IIIB [1]) [µM]	p24 and p55 levels in the cellular preparation (HIV-1 IIIB [2])	p24 and p55 levels in the viral preparation (viral lysates) (HIV-1 IIIB [2])	also measured
c1cc(CN2CCCNCCNCCCNCC2)ccc1CN1CCCNCCNCCCNCC1 [AMD3100, reference compound]	–	–	–	viral infectivity of particles released by treated cells (HIV-IIIB; 1 ug/ml): very little to no viral infectivity
CC[C@H](C)[C@H](N)C(=O)N[C@@H](CO)C(=O)N[C@@H](Cc1ccccc1)C(=O)N[C@@]1(C)CCC/C=C\CCC[C@@](C)(C(=O)N[C@@H](Cc2ccc(O)cc2)C(=O)N[C@@H](Cc2ccc(O)cc2)C(=O)NCC(=O)N[C@@H](CCCNC(=N)N)C(N)=O)NC(=O)[C@H](CC(C)C)NC(=O)[C@H](CC(C)C)NC(=O)[C@H](CCC(=O)O)NC1=O [NYAD-15] (H-ISF[S5]ELL[S5]YYGR-NH2; staple (Z) 4-8; N-terminus and C-terminus assumed)	4.86 ± 1.55	dose-dependent decrease	dose-dependent decrease	–
CC[C@H](C)[C@H](N)C(=O)N[C@H](C(=O)N[C@@H](Cc1ccccc1)C(=O)N[C@@]1(C)CCC/C=C\CCC[C@@](C)(C(=O)N[C@@H](Cc2ccc(O)cc2)C(=O)N[C@@H](Cc2ccc(O)cc2)C(=O)NCC(=O)N[C@@H](CCC(=O)O)C(=O)N[C@@H](CCCCN)C(N)=O)NC(=O)[C@H](CC(C)C)NC(=O)[C@H]([C@@H](C)CC)NC(=O)[C@H](CC(=O)O)NC1=O)[C@@H](C)O [NYAD-23] (H-ITF[S5]DIL[S5]YYGEK-NH2; staple (Z) 4-8; N-terminus and C-terminus assumed)	9.1 ± 0.74	dose-dependent decrease	dose-dependent decrease	–
CC[C@H](C)[C@H](N)C(=O)N[C@@H](CO)C(=O)N[C@@H](Cc1ccccc1)C(=O)N[C@@]1(C)CCC/C=C\CCC[C@@](C)(C(=O)N[C@@H](Cc2ccc(O)cc2)C(=O)N[C@@H](Cc2ccc(O)cc2)C(=O)NCC(=O)N[C@@H](CCC(=O)O)C(=O)N[C@@H](CCCCN)C(N)=O)NC(=O)[C@H](CC(C)C)NC(=O)[C@H](CC(C)C)NC(=O)[C@H](CCC(=O)O)NC1=O [NYAD-24] (H-ISF[S5]ELL[S5]YYGEK-NH2; staple (Z) 4-8; N-terminus and C-terminus assumed)	13.8 ± 3.57	–	–	–
CC[C@H](C)[C@H](N)C(=O)N[C@H](C(=O)N[C@@H](Cc1ccccc1)C(=O)N[C@@]1(C)CCC/C=C\CCC[C@@](C)(C(=O)N[C@@H](Cc2ccc(O)cc2)C(=O)N[C@@H](Cc2ccc(O)cc2)C(=O)NCC(=O)N[C@@H](CCCNC(=N)N)C(N)=O)NC(=O)[C@H](CC(C)C)NC(=O)[C@H](Cc2c[nH]c3ccccc23)NC(=O)[C@H](CC(=O)O)NC1=O)[C@@H](C)O [NYAD-31] (H-ITF[S5]DWL[S5]YYGR-NH2; staple (Z) 4-8; N-terminus and C-terminus assumed)	13.5 ± 1.4	–	–	–
CC[C@H](C)[C@H](N)C(=O)N[C@@H](CO)C(=O)N[C@@H](Cc1ccccc1)C(=O)N[C@]1(C)CCCCCC/C=C\CCC[C@@](C)(C(=O)N[C@@H](CCCNC(=N)N)C(N)=O)NC(=O)[C@H](Cc2ccc(O)cc2)NC(=O)[C@H](Cc2ccc(O)cc2)NC(=O)[C@H](CCC(N)=O)NC(=O)[C@H](CC(C)C)NC(=O)[C@H](Cc2c[nH]c3ccccc23)NC(=O)[C@H](CCC(=O)O)NC1=O [NYAD-33] (H-ISF[R8]EWLQYY[S5]R-NH2; staple (Z) 4-11; N-terminus and C-terminus assumed)	3.37 ± 0.06	–	–	viral infectivity of particles released by treated cells (HIV-IIIB; 7 μM): very little to no viral infectivity; viral infectivity of particles released by treated cells (HIV-IIIB; 14 μM): very little to no viral infectivity; infectivity respect to the control (HIV-IIIB): 25%
CC[C@H](C)[C@H](N)C(=O)N[C@@H](CO)C(=O)N[C@@H](Cc1ccccc1)C(=O)N[C@@]1(C)CCC/C=C\CCC[C@@](C)(C(=O)N[C@@H](Cc2ccc(O)cc2)C(=O)N[C@@H](Cc2ccc(O)cc2)C(=O)NCC(=O)N[C@@H](CCCNC(=N)N)C(=O)N[C@@H](CO)C(=O)NCC(=O)N[C@@H](CO)C(N)=O)NC(=O)[C@H](CC(C)C)NC(=O)[C@H](CC(C)C)NC(=O)[C@H](CCC(=O)O)NC1=O [NYAD-34] (H-ISF[S5]ELL[S5]YYGRSGS-NH2; staple (Z) 4-8; N-terminus and C-terminus assumed)	12.7 ± 0.9	–	–	–
CC[C@H](C)[C@H](N)C(=O)N[C@@H](CO)C(=O)N[C@@H](Cc1ccccc1)C(=O)N[C@@]1(C)CCC/C=C\CCC[C@@](C)(C(=O)N[C@@H](Cc2ccc(O)cc2)C(=O)N[C@@H](Cc2ccc(O)cc2)C(=O)NCC(=O)N[C@@H](CCC(=O)O)C(=O)N[C@@H](CO)C(=O)NCC(=O)N[C@@H](CO)C(N)=O)NC(=O)[C@H](CC(C)C)NC(=O)[C@H](CC(C)C)NC(=O)[C@H](CCC(=O)O)NC1=O [NYAD-35] (H-ISF[S5]ELL[S5]YYGESGS-NH2; staple (Z) 4-8; N-terminus and C-terminus assumed)	4.51 ± 0.14	–	–	–
CC[C@H](C)[C@H](N)C(=O)N[C@@H](CO)C(=O)N[C@@H](Cc1ccccc1)C(=O)N[C@]1(C)CCCCCC/C=C\CCC[C@@](C)(C(=O)N[C@@H](CCC(=O)O)C(=O)N[C@@H](CO)C(=O)NCC(=O)N[C@@H](CO)C(N)=O)NC(=O)[C@H](Cc2ccc(O)cc2)NC(=O)[C@H](Cc2ccc(O)cc2)NC(=O)[C@H](CC(=O)O)NC(=O)[C@H](CC(C)C)NC(=O)[C@H](CC(C)C)NC(=O)[C@H](CCC(=O)O)NC1=O [NYAD-36] (H-ISF[R8]ELLDYY[S5]ESGS-NH2; staple (Z) 4-11)	1.5 ± 0.17	the same decrease was not detected	dose-dependent decrease	viral infectivity of particles released by treated cells (HIV-IIIB; 6.8 μM): very little to no viral infectivity; viral infectivity of particles released by treated cells (HIV-IIIB; 13.5 μM): very little to no viral infectivity; infectivity respect to the control (HIV-IIIB): 7.7%; secondary structure by CD [3]: α-helical structure; solubility: < 100 µM; ΔH (CTDM184A/W185A): −8.4 (±0.4) Kcal/mol
CC[C@H](C)[C@H](N)C(=O)N[C@@H](CO)C(=O)N[C@@H](Cc1ccccc1)C(=O)N[C@@]1(C)CCC/C=C\CCC[C@@](C)(C(=O)N[C@@H](Cc2ccc(O)cc2)C(=O)N[C@@H](Cc2ccc(O)cc2)C(=O)NCC(=O)N[C@@H](CCC(=O)O)C(=O)N[C@@H](CO)C(=O)NCC(=O)N[C@@H](CO)C(N)=O)NC(=O)[C@H](CC(C)C)NC(=O)[C@H]([C@@H](C)CC)NC(=O)[C@H](CCC(=O)O)NC1=O [NYAD-37] (H-ISF[S5]EIL[S5]YYGESGS-NH2; staple (Z) 4-8; N-terminus and C-terminus assumed)	8 ± 0.36	dose-dependent decrease	dose-dependent decrease	viral infectivity of particles released by treated cells (HIV-IIIB; 15 μM): very little to no viral infectivity; viral infectivity of particles released by treated cells (HIV-IIIB; 30 μM): very little to no viral infectivity
FITC-conjugated NYAD-1: NYAD-1 N-terminally derivatized with β-Ala and FITC ({FITC-βAla}-ITF[S5]DLL[S5]YYGP-NH2; staple 4-8; also: X4, X8 also described as (S)-2-(2'-pentenyl)alanine)	–	–	–	colocalization with gag-mStrawberry [4]: significant fraction colocalized
NYAD-41: SEQ ID NO:20, linear peptide corresponding to NYAD-36, used as control (ISFDELLDYYGESGS; Linear peptide NYAD-41)	–	–	–	secondary structure by CD [3]: random nature
